Experimental data reported in US20190040004A1, “NEW COMPOUNDS FOR THE TREATMENT AND/OR PREVENTION OF PARASITIC DISEASES AND METHOD OF PRODUCTION OF THEREOF” (INSTITUT DE RECHERCHE POUR LE DEVELOPPEMENT (I.R.D.), priority 2013, published 2019).
“Also recorded” adds a separate entry of the source. Like-named read-outs stand apart in the source and are kept apart here.

Key:
[1] = test system: T1, HDAC activity from HELA nuclear extract; assay: Fluorimetric HDAC assay, HeLa nuclear extract; type: biochemical, human
T1 construct: HELA Nuclear extracts IC50; other: HeLa nuclear extract, fluorimetric HDAC kit; […]
Description: (§1) HDAC inhibitory activity was determined by a fluorimetric HDAC assay kit (Active-motif, Belgium), according to manufacturer's instructions. […] Fluorogenic substrate (10 μL) was added, reaction was allowed to proceed for 30 min at room temperature, then stopped by the addition of a developer containing Tichostatin A.

[2] = test system: T. gondii (GFP expressing parasites) in HFF; assay: T. gondii proliferation in human foreskin fibroblasts; type: cell-based, Toxoplasma gondii; conditions: for IC50: 24 h
Description: To assess the drug activity on toxoplasma proliferation, human foreskin fibroblasts (HFF) were infected with GFP expressing parasites for 30 mns (Striepen et al., Mol Biochem Parasitol. 1998, 92(2):325-38). Cells were then washed and drugs added at various concentrations ranging from 0.1 to 10 uM. After 24 h, cells were washed and fixed (PBS-formaldehyde 2%) and nucleus stained with Hoechst 33258 (2 μg/ml). The number of infected cells i.e cells harbouring a parasitophorous vacuole and the number of parasites per vacuole were determined using an Olympus ScanR microscope (Olympus).
(§2) Antiparasitic activity of a compound is represented by ICo50, which is calculated with Prism software (Prism4 for MacOSX Version 5.0b, December 2008). The cytoxicity of a compound against the host cells of L. infantum and T. gondii, such as THP-1 or HFF cells, was determined with a MTT assay, according to previously described protocol (Sereno et al., Antimicrob Agents Chemother. 2001, 45(4):1168-73). THP-1 is derived from the peripheral blood ofa human with acute monocytic leukemia.

HFF cells = assay: MTT cytotoxicity on HFF host cells; type: cell-based
Description: as §2

THP-1 cells = assay: MTT cytotoxicity on THP-1 host cells; type: cell-based
Description: as §2

recombinant HDAC1 = recombinant HDAC1 (Homo sapiens, UniProt Q13547); assay: Recombinant HDAC1 inhibition; type: biochemical; conditions: read-out: IC50 recombinant HDAC 1
Description: FIG. 2 illustrates the capacity of the different compounds of 600 nM to inhibit HDAC activity from HELA nuclear extract and from HDAC-recombinant proteins (HDAC 1, HDAC 3, HDAC 6, HDAC 8).
HDAC inhibitory activity was determined by a fluorimetric HDAC assay kit (Active-motif, Belgium), according to manufacturer's instructions. Briefly, 30 μL of HeLa nuclear extract were mixed with 5 μL of 10× compound to be tested and 10 μL of assay buffer. Fluorogenic substrate (10 μL) was added, reaction was allowed to proceed for 30 min at room temperature, then stopped by the addition of a developer containing Tichostatin A. Fluorescence was monitored after 30 min at excitation and emission wavelengths of 360 and 460 nm, respectively. […].

recombinant HDAC6 = biological target: T2, recombinant HDAC6 (Homo sapiens, UniProt Q9UBN7); assay: Recombinant HDAC6 inhibition; type: biochemical
T2 sequence (Q9UBN7 1-1215): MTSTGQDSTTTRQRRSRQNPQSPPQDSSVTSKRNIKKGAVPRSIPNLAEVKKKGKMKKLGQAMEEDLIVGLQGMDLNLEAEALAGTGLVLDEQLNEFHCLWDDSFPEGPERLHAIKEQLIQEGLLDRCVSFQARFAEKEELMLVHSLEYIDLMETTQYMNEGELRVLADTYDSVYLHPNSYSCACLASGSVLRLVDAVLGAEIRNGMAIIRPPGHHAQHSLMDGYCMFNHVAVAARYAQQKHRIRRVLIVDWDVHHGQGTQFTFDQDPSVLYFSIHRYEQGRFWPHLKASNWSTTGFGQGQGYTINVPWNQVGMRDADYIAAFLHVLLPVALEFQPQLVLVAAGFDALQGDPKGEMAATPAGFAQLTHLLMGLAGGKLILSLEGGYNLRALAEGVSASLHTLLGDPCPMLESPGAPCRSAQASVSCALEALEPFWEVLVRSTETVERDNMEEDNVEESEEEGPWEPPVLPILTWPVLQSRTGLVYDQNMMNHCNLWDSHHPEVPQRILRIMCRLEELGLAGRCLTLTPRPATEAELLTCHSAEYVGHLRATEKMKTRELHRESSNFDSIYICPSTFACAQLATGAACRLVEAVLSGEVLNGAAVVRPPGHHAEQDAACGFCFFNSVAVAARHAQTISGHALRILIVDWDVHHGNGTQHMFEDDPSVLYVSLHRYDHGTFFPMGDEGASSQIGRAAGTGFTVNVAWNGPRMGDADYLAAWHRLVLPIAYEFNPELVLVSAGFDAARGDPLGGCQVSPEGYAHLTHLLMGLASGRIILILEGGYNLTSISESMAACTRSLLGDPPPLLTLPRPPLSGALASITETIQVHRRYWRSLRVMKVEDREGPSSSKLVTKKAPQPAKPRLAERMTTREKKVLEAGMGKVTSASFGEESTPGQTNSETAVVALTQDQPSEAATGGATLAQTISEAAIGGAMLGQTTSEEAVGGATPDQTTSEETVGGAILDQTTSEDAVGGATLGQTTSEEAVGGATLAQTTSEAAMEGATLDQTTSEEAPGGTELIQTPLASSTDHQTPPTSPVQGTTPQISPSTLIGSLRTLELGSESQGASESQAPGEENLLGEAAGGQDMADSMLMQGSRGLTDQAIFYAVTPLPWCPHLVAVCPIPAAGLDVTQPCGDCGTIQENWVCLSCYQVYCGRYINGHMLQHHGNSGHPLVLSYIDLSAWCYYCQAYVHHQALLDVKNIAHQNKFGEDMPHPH

type I RH-YFP parasites = assay: RH-YFP type I Toxoplasma proliferation in HFF; type: cell-based, Toxoplasma gondii; conditions: 0.025 to 0.8 uM, 24 h
Description: (§3) To compare the activity of compounds according to the invention to that of prior art on toxoplasma proliferation, human foreskin fibroblasts (HFF) were plated in 96-wells plate (10 000 cells per well). Twenty-four hours later, cells were infected with 40 000 parasites, either RH-YFP type I or type II Prugniaud parasites or tachyzoites (kindly provided by B. Striepen, Athens) for one hour. Cells were then washed and drugs (compound D16 of formula
(§4) (FIG. 4 and FIG. 5) or compound according to the invention (363) (FIG. 6) added at various concentrations ranging from 0.025 to 0.8 uM. After 24 h, cells were washed and fixed (PBS-formaldehyde 2%) and nucleus stained with Hoechst 33258 (2 μg/ml). The number of infected cells ie. cells harbouring a parasitophorous vacuole and the number of parasites per vacuole was determined using an Olympus ScanR microscope (Olympus).

[3] = test system: type II Prugniaud parasites; assay: Type II Prugniaud Toxoplasma proliferation in HFF; type: cell-based, Toxoplasma gondii; conditions: 0.025 to 0.8 uM, 24 h
Description: as §3, §4

[4] = test system: Leishmania infantum luciferase expressing strain (MHOM/MA/ITMAP269); assay: microbe, parasite or virus in culture; type: cell-based; conditions: for IC50: Leishmania infantum, read-out: L. infantum IC50
Source text: THP-1 is derived from the peripheral blood ofa human with acute monocytic leukemia.

[5] = test system: HDAC activity from HELA nuclear extract; assay: Fluorimetric HDAC assay, HeLa nuclear extract; type: biochemical, human; conditions: read-out: IC50 (better HDAC inhibitor among 9 tested compounds)
Description: as §1

[6] = HeLa nuclear extract, fluorimetric HDAC kit, read-out: HELA Nuclear extracts IC50
[7] = Toxoplasma gondii, Fibroblast, HFF infected, read-out: T. gondi IC50
[8] = Toxoplasma gondii, Fibroblast, read-out: T. gondi IC50, HFF infected, 24 h
[9] = text summary of Table 1, less active compounds, read-out: HDAC inhibitory activity against HeLa cell nuclear extract

Sequence of recombinant HDAC1 (Q13547 whole entry): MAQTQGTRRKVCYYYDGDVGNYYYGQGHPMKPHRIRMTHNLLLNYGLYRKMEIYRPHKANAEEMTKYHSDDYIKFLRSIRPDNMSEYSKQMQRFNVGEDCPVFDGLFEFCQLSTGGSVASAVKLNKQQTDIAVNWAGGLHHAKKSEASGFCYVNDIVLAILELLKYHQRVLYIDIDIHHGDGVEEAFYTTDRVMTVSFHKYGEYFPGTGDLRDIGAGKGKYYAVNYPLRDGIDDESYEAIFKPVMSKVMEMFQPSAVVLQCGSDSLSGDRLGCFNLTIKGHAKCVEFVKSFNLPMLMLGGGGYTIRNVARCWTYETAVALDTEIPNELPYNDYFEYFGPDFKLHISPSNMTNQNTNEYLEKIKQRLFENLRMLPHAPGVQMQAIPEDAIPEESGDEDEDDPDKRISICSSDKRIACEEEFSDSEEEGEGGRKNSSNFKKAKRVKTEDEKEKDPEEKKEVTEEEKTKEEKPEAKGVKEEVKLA

Row | SMILES | IC50 [1, 6] [nM] | IC50 [2, 7] [nM] | IS Selectivity index LD50 (HFF)/IC50 T. gondii (HFF cells) | HFF LD50 (HFF cells; human) [µM] | IS Selectivity index LD50 (THP-1)/IC50 T. gondii (THP-1 cells) | THP-1 LD50 (THP-1 cells; human) | IC50 [2, 8] [nM] | other results
1 | COc1cccc(CC(=O)NCc2ccc(C(=O)NO)cc2)c1 [Compound 362] | 518 | 52500 | >8 | >400 | 0.5 | 30.5 ± 3.0 µM |  | 
2 | O=C(NO)c1ccc(NS(=O)(=O)c2cccc(F)c2)cc1 [Compound 351] | 881 |  | 2.3 | 116.5 ± 35 | 1.53 |  | 50000 | 
3 | COc1ccccc1CNC(=O)c1ccc(C(=O)NO)cc1 [Compound D16, reference compound] | 7740 |  |  |  |  |  |  | IC50 (recombinant HDAC1): > 10000 nM; IC50 (recombinant HDAC6): 198 nM; inhibitory activity on type I RH-YFP parasites proliferation, in words (type I RH-YFP parasites): lack of inhibitory effect; also recorded: no inhibitory activity; inhibitory activity on type II Prugniaud parasites proliferation, in words [3]: no inhibitory activity; inhibitory activity on type II Prugniaud parasites proliferation, in words ([3]; listed as Dl6): lack of inhibitory effect
4 | O=C(NO)c1ccccc1 [ST3, hydroxybenzamide, reference compound] |  |  |  |  |  |  | > 50000 | IC50 [4]: 29300 nM; HFF LD50 (HFF cells; MTT cytotoxicity): >400 µM
5 | O=C(NO)c1ccc(NC(=O)c2cccc(F)c2)cc1 [Compound 349] | 633 | > 50000 |  | >400 |  | 264 ± 8.0 µM |  | 
6 | Cc1nc(-c2ccc(C(=O)Nc3ccc(C(=O)NO)cc3)cc2)cs1 [Compound 361] | 1820 |  | 1.5 | 25.0 ± 4.0 | 25 | >400 µM | > 10000 | IC50 [1, 9]: ~1000 nM; IC50 [4]: > 60000 nM
7 | Cc1nc(-c2ccc(C(=O)NCc3ccc(C(=O)NO)cc3)cc2)cs1 [Compound 360] | 399 |  | 4.5 | 22.6 ± 9.5 | 0.4 | 2.2 ± 0.5 µM |  | IC50 [5]: 2200 nM; IC50 ([4]; antiparasitic activity): > 60000 nM
8 | O=C(CCCCCCC(=O)Nc1ccccc1)NO [SAHA, suberoylanilide hydroxamic acid, reference compound] |  |  |  |  |  |  |  | THP-1 LD50 (THP-1 cells; MTT cytotoxicity): >200 µM
9 | O=C(NO)c1ccc(CNS(=O)(=O)c2cccc(F)c2)cc1 [Compound 350] | 8610 | 40000 | 7.5 | 300.0 ± 50.0 | 10 | >400 µM |  | IC50 [1, 9]: ~1000 nM
10 | O=C(NO)c1ccc(CNC(=O)c2cccc(F)c2)cc1 [Compound 345] | 866 | < 10000 | 11.6 | 58.3 ± 1.2 | 0.3 | 1.7. +/− 0.5 μM |  | IC50 [5]: 1700 nM; anti-leishmanial activity, in words [4]: anti-leishmanial; anti-toxoplasma activity, in words [2]: anti-toxoplasma activity; IC50 ([2]; read-out: T. gondi IC50, HFF infected): 5000 nM
